From ChEMBL document CHEMBL1201862, “PubChem BioAssay data set” (2004)
Calls of active or inactive are those of the source.

How the values were obtained:
[1] = target: T1, Melanocortin receptor 4 (Homo sapiens, UniProt P32245); assay: MC4R antagonist potency on cAMP, dose response, cell-based, TR-FRET, biased antagonists (AID 602298); format: functional;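 further: antagonist potency against agonist-stimulated cAMP production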
[2] = nonselective inhibitors of cellular cAMP signaling, dose response, counter-screen for MC4R biased antagonist project, cell-based, TR-FRET cAMP detection (AID 602305); format: functional;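 further: U2OS cells stimulated with forskolin near its EC80 as the cAMP inducer; potency is for inhibition of forskolin-stimulated cAMP signaling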
[3] = target: Delta-type opioid receptor (Homo sapiens, UniProt P41143); assay: Counterscreen for agonists of heterodimerization of the mu 1 (OPRM1) and delta 1 (OPRD1) opioid receptors: Luminescence-based cell-based high throughput dose response assay to identify agonists of OPRD1 homodimerization. [Related pubchem assays (depositor defined):AID504326, AID504355, AID504692, AID504904, AID504905]; format: functional
[4] = target: Mu-type opioid receptor (Homo sapiens, UniProt P35372); assay: Counterscreen for agonists of heterodimerization of the mu 1 (OPRM1) and delta 1 (OPRD1) opioid receptors: Luminescence-based cell-based high throughput dose response assay to identify agonists of OPRM1 homodimerization.; format: functional;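 further: U2OS cells expressing OPRM1 and beta-arrestin as split beta-galactosidase partners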
[5] = target: 5-hydroxytryptamine receptor 5A (Homo sapiens, UniProt P47898); assay: Counterscreen for agonists of OPRM1-OPRD1 heterodimerization: luminescence-based cell-based high throughput dose response assay to identify agonists of 5-hydroxytryptamine (serotonin) 5A receptor (HTR5A). [Related pubchem assays (depositor defined):AID504326, AID504355, AID504692, AID504904, AID504905]; format: functional
[6] = test system: BJ; assay: cytotoxicity toward BJ-TERT fibroblasts, dose response, cell-based, RAS-independent, luminescence (AID 1933); format: functional; conditions: Homo sapiens
[7] = test system: BJ; assay: cells; format: functional, cell-based; conditions: Homo sapiens
[8] = test system: BJ; assay: cytotoxicity toward BJ-TERT-LT-ST fibroblasts, dose response, cell-based, RAS-independent, luminescence (AID 1935); format: functional; conditions: Homo sapiens;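 further: BJ fibroblasts immortalized with TERT plus LT and ST oncogenes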
[9] = cytotoxicity toward DRD oncogenic fibroblasts, dose response, cell-based, non-viral oncogenic, luminescence (AID 1934); format: functional; conditions: Homo sapiens
[10] = target: T2, Polyadenylate-binding protein 1 (Homo sapiens, UniProt P11940); assay: PABP1 MLLE–PAM2 interaction inhibitors, dose response, miRNA deadenylation inhibitor project, biochemical, fluorescence polarization, Cy5-PAM2 peptide, secondary (AID 602260); format: functional; conditions: read-out: IC50_Mean
[11] = target: T2, Polyadenylate-binding protein 1; assay: PABP1 MLLE–PAM2 binding inhibitor potency, dose response, biochemical, fluorescence polarization, FITC-PAM2 peptide (AID 602259); format: functional; conditions: read-out: IC50_Mean
[12] = target: T3, Interleukin-8 (Homo sapiens, UniProt P10145); assay: Dose Response confirmation of uHTS small molecule hits for cystic fibrosis induced NFkb Inhibitors in a TNFa-induced IL8 counterscreen.; format: functional; conditions: read-out: IC50_Mean
T3 sequence (P10145 whole entry): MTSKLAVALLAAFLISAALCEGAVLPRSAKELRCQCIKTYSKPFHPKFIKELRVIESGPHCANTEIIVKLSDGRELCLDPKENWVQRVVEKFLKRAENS

[13] = target: T3, Interleukin-8; assay: Dose Response confirmation of uHTS small molecule hits for cystic fibrosis induced NFkb Inhibitors in a PAF-induced IL8 counterscreen.; format: functional; conditions: read-out: IC50_Mean
[14] = target: T1, Melanocortin receptor 4; format: functional, cell-based
[15] = test system: HEK293; assay: inhibitors of LMP1-driven NF-kB reporter, dose response, cell-based, HEK293, luciferase, cherry-pick (AID 588343); format: functional; conditions: Homo sapiens
[16] = target: T4, Latent membrane protein 1 (Human herpesvirus 4 (strain B95-8), UniProt P03230); assay: TES1-eGFP NF-kB reporter inhibition versus Tet-On dsRED, dose response, selectivity assay for LMP1 NF-kB inhibitor project, imaging, HEK293T, dual-color eGFP/dsRED, cherry-picks (AID 588398); format: functional, cell-based
T4 sequence (P03230 whole entry): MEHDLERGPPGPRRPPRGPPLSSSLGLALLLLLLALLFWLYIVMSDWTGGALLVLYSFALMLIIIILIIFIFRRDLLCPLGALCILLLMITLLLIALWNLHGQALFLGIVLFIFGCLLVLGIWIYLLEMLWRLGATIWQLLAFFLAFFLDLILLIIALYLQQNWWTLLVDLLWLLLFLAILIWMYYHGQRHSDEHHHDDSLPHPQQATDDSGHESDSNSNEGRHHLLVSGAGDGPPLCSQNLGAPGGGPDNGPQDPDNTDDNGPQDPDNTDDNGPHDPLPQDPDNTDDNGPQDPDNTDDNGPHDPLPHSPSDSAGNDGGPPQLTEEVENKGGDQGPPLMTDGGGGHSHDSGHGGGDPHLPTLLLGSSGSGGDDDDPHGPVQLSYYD

[17] = test system: Vero; assay: cells; format: functional; conditions: Chlorocebus sabaeus
[18] = target: T5, Exodeoxyribonuclease V (Escherichia coli (strain K12), UniProt P04993+P07648+P08394); assay: E. coli RecBCD inhibitors, dose response, counter-screen for AddAB inhibitor project, absorbance, V66 E. coli, mutant T4 phage (AID 492957); format: functional, cell-based, Escherichia coli str. K-12 substr. MG1655
T5 sequence (P04993 whole entry): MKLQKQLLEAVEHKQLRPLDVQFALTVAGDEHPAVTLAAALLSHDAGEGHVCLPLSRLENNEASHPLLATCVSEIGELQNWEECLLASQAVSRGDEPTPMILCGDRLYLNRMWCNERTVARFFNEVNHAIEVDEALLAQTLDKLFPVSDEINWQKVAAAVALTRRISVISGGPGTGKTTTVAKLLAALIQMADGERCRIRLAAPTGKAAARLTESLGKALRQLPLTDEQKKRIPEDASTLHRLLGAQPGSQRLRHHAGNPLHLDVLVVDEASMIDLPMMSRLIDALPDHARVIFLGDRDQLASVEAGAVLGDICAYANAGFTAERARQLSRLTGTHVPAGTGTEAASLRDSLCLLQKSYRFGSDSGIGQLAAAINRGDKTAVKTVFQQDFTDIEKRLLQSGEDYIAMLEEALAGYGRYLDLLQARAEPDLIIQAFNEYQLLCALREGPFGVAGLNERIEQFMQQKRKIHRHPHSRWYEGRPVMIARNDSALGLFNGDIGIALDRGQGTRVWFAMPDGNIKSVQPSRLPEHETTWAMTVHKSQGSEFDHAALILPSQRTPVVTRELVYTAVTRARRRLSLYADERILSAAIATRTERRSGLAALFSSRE
T5 sequence (P07648 whole entry): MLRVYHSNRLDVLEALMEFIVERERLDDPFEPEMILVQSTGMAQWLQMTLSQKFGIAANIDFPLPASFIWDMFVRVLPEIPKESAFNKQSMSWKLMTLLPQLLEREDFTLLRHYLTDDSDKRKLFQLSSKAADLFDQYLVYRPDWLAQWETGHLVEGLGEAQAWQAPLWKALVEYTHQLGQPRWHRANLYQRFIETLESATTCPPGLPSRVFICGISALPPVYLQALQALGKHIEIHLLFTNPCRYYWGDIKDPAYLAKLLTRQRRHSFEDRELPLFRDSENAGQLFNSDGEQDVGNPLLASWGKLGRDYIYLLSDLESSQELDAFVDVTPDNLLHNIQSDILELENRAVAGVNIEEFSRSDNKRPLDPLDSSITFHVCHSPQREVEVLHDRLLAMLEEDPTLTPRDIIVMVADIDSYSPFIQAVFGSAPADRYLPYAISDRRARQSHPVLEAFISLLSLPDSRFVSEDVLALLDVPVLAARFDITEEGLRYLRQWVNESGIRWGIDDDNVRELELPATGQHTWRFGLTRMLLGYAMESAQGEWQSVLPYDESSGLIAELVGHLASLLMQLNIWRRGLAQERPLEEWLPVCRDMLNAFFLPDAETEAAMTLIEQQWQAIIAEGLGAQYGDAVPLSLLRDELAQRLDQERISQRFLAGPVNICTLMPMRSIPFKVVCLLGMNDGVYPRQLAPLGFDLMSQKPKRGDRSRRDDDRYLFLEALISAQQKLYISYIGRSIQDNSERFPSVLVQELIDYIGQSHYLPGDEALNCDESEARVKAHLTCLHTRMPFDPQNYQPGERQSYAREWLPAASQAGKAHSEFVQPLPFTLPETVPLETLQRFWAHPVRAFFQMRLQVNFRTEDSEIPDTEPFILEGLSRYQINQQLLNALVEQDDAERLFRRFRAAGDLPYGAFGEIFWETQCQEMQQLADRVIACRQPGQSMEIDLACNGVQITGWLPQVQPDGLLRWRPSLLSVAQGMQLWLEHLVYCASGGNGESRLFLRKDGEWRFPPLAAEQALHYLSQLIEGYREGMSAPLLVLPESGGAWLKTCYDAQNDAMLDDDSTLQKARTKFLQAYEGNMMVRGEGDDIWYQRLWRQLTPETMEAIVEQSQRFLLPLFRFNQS
T5 sequence (P08394 whole entry): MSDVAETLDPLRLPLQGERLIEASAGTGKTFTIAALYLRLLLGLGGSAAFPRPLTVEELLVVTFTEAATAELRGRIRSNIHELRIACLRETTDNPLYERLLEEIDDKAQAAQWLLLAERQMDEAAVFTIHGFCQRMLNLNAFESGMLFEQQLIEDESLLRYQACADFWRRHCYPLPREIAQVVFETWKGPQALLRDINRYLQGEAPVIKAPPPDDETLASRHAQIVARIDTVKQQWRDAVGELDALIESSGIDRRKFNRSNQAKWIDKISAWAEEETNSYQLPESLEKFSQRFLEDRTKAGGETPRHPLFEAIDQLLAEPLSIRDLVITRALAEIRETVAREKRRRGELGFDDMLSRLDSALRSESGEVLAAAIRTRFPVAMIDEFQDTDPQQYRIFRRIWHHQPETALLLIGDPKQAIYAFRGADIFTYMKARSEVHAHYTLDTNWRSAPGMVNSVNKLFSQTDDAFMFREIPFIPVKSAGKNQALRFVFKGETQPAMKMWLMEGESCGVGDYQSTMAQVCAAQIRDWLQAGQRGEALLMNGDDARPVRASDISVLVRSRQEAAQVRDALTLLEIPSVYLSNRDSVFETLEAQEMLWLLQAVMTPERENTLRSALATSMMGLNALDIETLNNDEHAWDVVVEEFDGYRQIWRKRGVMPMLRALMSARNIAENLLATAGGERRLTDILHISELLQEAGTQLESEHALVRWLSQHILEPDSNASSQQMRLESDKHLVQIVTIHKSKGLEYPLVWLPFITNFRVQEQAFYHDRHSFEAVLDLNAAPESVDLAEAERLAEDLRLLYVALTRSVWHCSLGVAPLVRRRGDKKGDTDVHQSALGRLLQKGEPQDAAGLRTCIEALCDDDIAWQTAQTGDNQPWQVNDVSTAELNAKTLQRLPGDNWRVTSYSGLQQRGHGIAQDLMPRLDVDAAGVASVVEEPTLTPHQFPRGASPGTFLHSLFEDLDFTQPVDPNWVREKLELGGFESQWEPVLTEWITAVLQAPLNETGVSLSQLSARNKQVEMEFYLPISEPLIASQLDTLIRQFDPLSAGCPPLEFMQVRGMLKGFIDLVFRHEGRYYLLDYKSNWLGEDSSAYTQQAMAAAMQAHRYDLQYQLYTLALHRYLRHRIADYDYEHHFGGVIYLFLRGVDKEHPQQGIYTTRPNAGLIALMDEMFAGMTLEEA

[19] = Counterscreen for AddAB inhibitors: absorbance-based bacterial cell-based high throughput dose response assay for inhibitors of bacterial viability. [Related pubchem assays (depositor defined):AID435030, AID449728, AID449731, AID488942, AID488955, AID488956]; format: functional

Sequence of Mu-type opioid receptor (P35372 whole entry): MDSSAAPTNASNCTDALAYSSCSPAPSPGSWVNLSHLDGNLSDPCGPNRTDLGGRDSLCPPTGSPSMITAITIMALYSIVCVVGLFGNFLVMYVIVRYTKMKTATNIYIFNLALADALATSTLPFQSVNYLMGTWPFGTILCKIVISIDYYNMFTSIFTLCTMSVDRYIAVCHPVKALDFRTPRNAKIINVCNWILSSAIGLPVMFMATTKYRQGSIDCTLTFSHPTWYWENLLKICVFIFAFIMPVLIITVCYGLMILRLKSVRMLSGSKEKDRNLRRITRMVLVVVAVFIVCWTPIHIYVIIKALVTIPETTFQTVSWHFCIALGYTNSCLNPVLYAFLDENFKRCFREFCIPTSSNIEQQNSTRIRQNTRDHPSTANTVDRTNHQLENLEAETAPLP
Sequence of 5-hydroxytryptamine receptor 5A (P47898 whole entry): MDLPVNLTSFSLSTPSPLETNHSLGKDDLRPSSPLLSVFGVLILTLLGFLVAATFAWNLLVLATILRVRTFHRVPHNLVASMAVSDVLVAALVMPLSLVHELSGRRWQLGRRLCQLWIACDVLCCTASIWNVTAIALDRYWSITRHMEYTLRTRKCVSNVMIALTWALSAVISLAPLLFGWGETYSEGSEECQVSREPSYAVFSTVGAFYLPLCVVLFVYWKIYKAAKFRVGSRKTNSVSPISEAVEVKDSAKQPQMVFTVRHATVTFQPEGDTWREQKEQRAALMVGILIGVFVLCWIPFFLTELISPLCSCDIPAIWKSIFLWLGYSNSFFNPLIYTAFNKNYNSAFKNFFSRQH
Sequence of Delta-type opioid receptor (P41143 whole entry): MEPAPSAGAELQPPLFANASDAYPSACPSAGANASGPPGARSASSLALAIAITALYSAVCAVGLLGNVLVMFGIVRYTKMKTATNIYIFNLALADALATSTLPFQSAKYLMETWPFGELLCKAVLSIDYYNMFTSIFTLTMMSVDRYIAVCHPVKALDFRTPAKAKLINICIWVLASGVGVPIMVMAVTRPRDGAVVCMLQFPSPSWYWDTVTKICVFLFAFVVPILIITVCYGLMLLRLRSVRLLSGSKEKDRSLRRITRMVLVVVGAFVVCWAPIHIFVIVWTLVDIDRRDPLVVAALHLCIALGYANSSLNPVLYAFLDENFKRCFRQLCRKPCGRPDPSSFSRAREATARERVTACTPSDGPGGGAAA
T1 sequence (P32245 whole entry): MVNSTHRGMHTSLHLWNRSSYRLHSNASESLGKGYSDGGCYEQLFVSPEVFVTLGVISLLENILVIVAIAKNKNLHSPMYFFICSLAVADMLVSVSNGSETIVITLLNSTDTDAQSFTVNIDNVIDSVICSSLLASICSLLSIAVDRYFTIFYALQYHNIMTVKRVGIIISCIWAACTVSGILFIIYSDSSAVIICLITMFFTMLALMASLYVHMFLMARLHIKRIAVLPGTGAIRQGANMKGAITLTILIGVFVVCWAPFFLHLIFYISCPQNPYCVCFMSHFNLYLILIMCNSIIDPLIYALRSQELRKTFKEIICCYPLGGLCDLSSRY
T2 sequence (P11940 whole entry): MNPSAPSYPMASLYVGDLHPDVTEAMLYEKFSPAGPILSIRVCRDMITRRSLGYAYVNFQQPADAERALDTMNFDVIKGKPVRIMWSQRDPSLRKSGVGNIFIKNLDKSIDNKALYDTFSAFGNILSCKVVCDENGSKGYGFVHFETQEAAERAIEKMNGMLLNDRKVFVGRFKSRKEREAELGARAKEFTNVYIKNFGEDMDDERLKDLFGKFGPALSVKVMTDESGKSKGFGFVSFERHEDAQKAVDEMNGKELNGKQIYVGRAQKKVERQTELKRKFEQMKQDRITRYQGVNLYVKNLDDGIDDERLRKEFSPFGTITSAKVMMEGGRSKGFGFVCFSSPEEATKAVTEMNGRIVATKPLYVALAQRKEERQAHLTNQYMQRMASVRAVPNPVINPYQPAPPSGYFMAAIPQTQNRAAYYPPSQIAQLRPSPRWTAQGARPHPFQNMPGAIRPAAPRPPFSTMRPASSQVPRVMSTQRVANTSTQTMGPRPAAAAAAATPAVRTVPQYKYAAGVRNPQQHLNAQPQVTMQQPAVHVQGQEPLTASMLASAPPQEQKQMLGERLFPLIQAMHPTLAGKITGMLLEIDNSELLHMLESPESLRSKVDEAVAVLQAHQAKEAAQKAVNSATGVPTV

For `COc1cc([N+](=O)[O-])ccc1NC(=S)NC(=O)CC(C)(C)C`, the IC50 [1] was > 64.6 µM (inactive) and the IC50 [2] was > 64.6 µM (inactive).

With `CN(C)CCCN(C(=O)c1ccc(S(=O)(=O)N(C)Cc2ccccc2)cc1)c1nc2c(F)cccc2s1` the EC50 [3] was > 30.8 µM (inactive), the EC50 [4] was 26.2 µM (inactive) and the EC50 [5] was > 92.5 µM (inactive).

In the case of `CCOC(=O)c1c(NC(=O)C2c3ccccc3Oc3ccccc32)sc(C(N)=O)c1C`, the IC50 [1] is reported as > 21.5 µM (inactive) and the IC50 [2] is reported as 32.5 µM (inactive).

For `CCN(CC)S(=O)(=O)c1ccc(N2CCOCC2)c(NC(=O)c2ccccc2F)c1`, the IC50 [1] was > 64.6 µM (inactive) and the IC50 [2] was > 64.6 µM (inactive).

In the case of `CCc1ccc2nc(N(CCCN(C)C)C(=O)c3ccc(S(=O)(=O)N(C)C4CCCCC4)cc3)sc2c1`, the EC50 [6] is reported as 6.21 µM (inconclusive), the EC50 [7] is reported as 13.4 µM (active) and the EC50 [8] is reported as 7.58 µM (active). The EC50 [9] was 7.91 µM (active), the EC50 [3] was > 92.5 µM (inactive) and the EC50 [4] was > 92.5 µM (inactive). The EC50 [5] was > 92.5 µM (inactive).

With `O=S1(=O)CCC(NC(=S)SCCOc2ccccc2)C1` (stereo unspecified) the IC50 [10] was > 66 µM (inactive), the IC50 [11] was > 66 µM (inactive) and the IC50 [12] was 3.66 µM (active). For the same compound, the IC50 [13] was 3.07 µM (active).

With `CCCCCCCCNS(=O)(=O)CCNCCc1ccccc1` the EC50 [14] was > 89.1 µM (inactive).

In the case of `O=C1NC(c2cccc(OCc3ccccc3)c2)Nc2ccccc21` (stereo unspecified), the AC50 [15] is reported as 84 µM (active) and the AC50 [16] is reported as 2.82 µM (active).

With `CC(=O)Nc1cc(-c2cccc(F)c2)cn2c(-c3ccc(F)cc3)cnc12` the EC50 [14] was > 89.2 µM (inactive).

For `CCOc1ccc(-c2cc(C(=O)N/N=C/c3ccc(O)cc3)c3ccccc3n2)cc1`, the AC50 [15] was 5.12 µM (active) and the CC50 [17] was 14.9 µM (active).

In the case of `CCOc1cccc(/C=N/NC(=O)c2cc(-c3cccn3C)[nH]n2)c1O`, the IC50 [18] is reported as > 119 µM (inactive) and the IC50 [19] is reported as > 119 µM (inactive).

For `CSCCC(/C(O)=C(\C#N)c1nc2ccccc2[nH]1)N1C(=O)c2ccccc2C1=O` (stereo unspecified), the EC50 [3] was > 92.4 µM (inactive), the EC50 [4] was > 92.4 µM (inactive) and the EC50 [5] was > 92.4 µM (inactive).
